Experimental data as given in paper PMC3608651, “A Broad Profile of Co-Dominant Epitopes Shapes the Peripheral Mycobacterium tuberculosis Specific CD8+ T-Cell Immune Response in South African Patients with Active Tuberculosis” (PLoS ONE, 2013).

Tests used:
Type in all cases: binding
HLA-B*58:01 [1] = target: T1, HLA-B*58:01 (Homo sapiens, UniProt P01889, A329T/C349S/D201E/D98Y/E176V/E187L/E204Q/E69T/G107R/I218V/I90N/K202T/L105A/L119I/N104I/N87E/Q89R/Q94S/R106L/R155S/R180L/R86G/S101N/S121R/S35A/S48A/T118I/V127L/V306I/V36M/Y140S/Y91M)
HLA-A*02:01 [2] = target: T2, HLA-A*02:01 (Homo sapiens, UniProt P04439, D140Y/D185E/D98H/E176V/E277Q/G131W/G231S/I119V/I121R/I166T/I218V/L300P/L318F/N151K/N90K/P208A/P217A/Q86G/Q94H/R138H/R169H/T345S); settings: percent relative the binding of positive control peptide […]; plate-bound monomer 0.5 µg/ml; duplicated experiments; positive binder >40%
HLA-A*68:01 [3] = target: T3, HLA-A*68:01 (Homo sapiens, UniProt P04439, A269V/D185E/E176V/E277Q/E87N/F33Y/G231S/I121M/I166T/I218V/L180W/L300P/L318F/N151K/P208A/P217A/Q86R/R169H/T345S); settings: time points 0-8 h
HLA-C*07:01 [4] = target: T4, HLA-C*07:01 (Homo sapiens, UniProt P10321, K90N/S123Y); settings: percent relative the binding of positive control peptide […]; duplicated experiments; positive binder >40%
HLA-A*68:01 [5] = target: T3, HLA-A*68:01; settings: percent relative the binding of positive control peptide […]; duplicated experiments; positive binder >40%
HLA-A*68:01 [6] = target: T3, HLA-A*68:01
HLA-B*58:01 [7] = target: T1, HLA-B*58:01; settings: time points 0-8 h
HLA-A*30:01 [8] = target: T5, HLA-A*30:01 (Homo sapiens, UniProt P04439, D140H/D185E/E176W/F33S/G80R/H175R/K168Q/R138E/R41S); settings: percent relative the binding of positive control peptide […]; duplicated experiments; positive binder >40%
HLA-A*30:01 [9] = target: T5, HLA-A*30:01; test: off-rate assay (t1/2); settings: time points 0-8 h
HLA-A*30:01 [10] = target: T5, HLA-A*30:01; test: affinity assay (ED50); settings: peptide titrated 10−4 to 10−9 M
HLA-A*02:01 [11] = target: T2, HLA-A*02:01; settings: time points 0-8 h; time when 50% of peptide has dissociated
HLA-A*24:02 [12] = target: T6, HLA-A*24:02 (Homo sapiens, UniProt P04439, D101N/D140Y/D185E/E176V/E190D/F33S/G103R/G107R/I119L/I121M/I306V/K335N/L105A/L180Q/L300P/N151K/N90K/Q86E/Q94H/R106L/R138H/R89G/T104I/T345S/V100E/W191G/Y123F); settings: percent relative the binding of positive control peptide […]; duplicated experiments; positive binder >40%
HLA-B*07:02 [13] = target: T7, HLA-B*07:02 (Homo sapiens, UniProt P01889); settings: percent relative the binding of positive control peptide […]; duplicated experiments; positive binder >40%
HLA-B*58:01 [14] = target: T1, HLA-B*58:01; settings: percent relative the binding of positive control peptide […]; duplicated experiments; positive binder >40%
HLA-A*30:02 [15] = target: T8, HLA-A*30:02 (Homo sapiens, UniProt P04439, D101N/D140H/D185E/E176R/F33S/G80R/H175R/K168Q/Q94H/R138E/R41S/V100E); settings: percent relative the binding of positive control peptide […]; duplicated experiments; positive binder >40%
HLA-A*02:01 [16] = target: T2, HLA-A*02:01; settings: […]; peptide quantity for 50% binding saturation
HLA-A*24:02 [17] = target: T6, HLA-A*24:02
HLA-A*30:02 [18] = target: T8, HLA-A*30:02
HLA-A*30:02 [19] = target: T8, HLA-A*30:02; settings: time points 0-8 h
HLA-A*24:02 [20] = target: T6, HLA-A*24:02; settings: time points 0-8 h
HLA-B*07:02 [21] = target: T7, HLA-B*07:02; test: off-rate assay (t1/2); settings: time points 0-8 h
HLA-C*07:01 [22] = target: T4, HLA-C*07:01; test: off-rate assay (t1/2); settings: time points 0-8 h
HLA-B*07:02 [23] = target: T7, HLA-B*07:02; test: affinity assay (ED50); settings: peptide titrated 10−4 to 10−9 M
HLA-C*07:01 [24] = target: T4, HLA-C*07:01; test: affinity assay (ED50)

| Substance | Aff B*58:01 (ED50) (HLA-B*58:01 [1]) | Bind A*02:01 (HLA-A*02:01 [2]) [%] | O-rate A*68:01 (t1/2) (HLA-A*68:01 [3]) [min] | Bind C*07:01 (HLA-C*07:01 [4]) [%] | Bind A*68:01 (HLA-A*68:01 [5]) [%] | Aff A*68:01 (ED50) (HLA-A*68:01 [6]) | O-rate B*58:01 (t1/2) (HLA-B*58:01 [7]) [min] | Bind A*30:01 (HLA-A*30:01 [8]) [%] | O-rate A*30:01 (t1/2) (HLA-A*30:01 [9]) [min] | Aff A*30:01 (ED50) (HLA-A*30:01 [10]) | O-rate A*02:01 (t1/2) (HLA-A*02:01 [11]) [min] | Bind A*24:02 (HLA-A*24:02 [12]) [%] | Bind B*07:02 (HLA-B*07:02 [13]) [%] | Bind B*58:01 (HLA-B*58:01 [14]) [%] | Bind A*30:02 (HLA-A*30:02 [15]) [%] | Aff A*02:01 (ED50) (HLA-A*02:01 [16]) | Aff A*30:02 (ED50) (HLA-A*30:02 [18]) | O-rate A*30:02 (t1/2) (HLA-A*30:02 [19]) [min] | O-rate B*07:02 (t1/2) (HLA-B*07:02 [21]) [min] | Aff B*07:02 (ED50) (HLA-B*07:02 [23]) | further results |
| --- | --- | --- | --- | --- | --- | --- | --- | --- | --- | --- | --- | --- | --- | --- | --- | --- | --- | --- | --- | --- | --- |
| AAYHPQQFI | 4E -08 M | 56 | 228 | 0 | 47 | 3E -05 M | 48 | 83 | 30 | 2E -07 M | 72 | 54 | 9 | 64 | 34 | 6E -07 M |  |  |  |  |  |
| AMKGDLQSS |  | 89 |  | 23 | 0 |  |  | 129 | 30 | 2E -06 M | 102 | 42 | 9 | 0 | 47 | 2E -07 M | 1E -07 M | 120 |  |  | Aff A*24:02 (ED50) (HLA-A*24:02 [17]): 400000 nM; O-rate A*24:02 (t1/2) (HLA-A*24:02 [20]): 18 min |
| LSMAGSSAM |  | 72 | 132 | 71 | 51 | 1E -06 M |  | 0 |  |  | 84 | 14 | 92 | 0 | 79 | 2e-07 M | 3E -06 M | 66 | 156 | 3E -07 M | O-rate C*07:01 (t1/2) (HLA-C*07:01 [22]): 72 min; Aff C*07:01 (ED50) (HLA-C*07:01 [24]): 3E -06 M |
| MGRDIKVQF | 3e-07 M | 0 |  | 68 | 10 |  | 18 | 0 |  |  |  | 25 | 41 | 61 | 61 |  | 7e-08 M | 18 | 18 | 8e-07 M | O-rate C*07:01 (t1/2) (HLA-C*07:01 [22]): 12 min; Aff C*07:01 (ED50) (HLA-C*07:01 [24]): 8e-08 M |
| VANNT RLWV | 1e-08 M | 77 |  | 69 | 3 |  | 114 | 141 | 30 | 3E -08 M | 150 | 58 | 61 | 49 | 171 | 5E -07 M | 1e-07 M | 48 | 42 | 6e-07 M | Aff A*24:02 (ED50) (HLA-A*24:02 [17]): 4000 nM; O-rate C*07:01 (t1/2) (HLA-C*07:01 [22]): 36 min; O-rate A*24:02 (t1/2) (HLA-A*24:02 [20]): 18 min; Aff C*07:01 (ED50) (HLA-C*07:01 [24]): 3E -07 M |
| WL S ANR AV K |  | 13 | 126 | 16 | 139 | 2E -07 M |  | 179 | 30 | 1E -06 M |  | 40 | 49 | 1 | 6 |  |  |  | 42 | 2E -06 M |  |
| YAGSLSALL | 3E -08 M | 66 |  | 19 | 13 |  | 42 | 0 |  |  |  | 81 | 41 | 58 | 64 |  | 2e-07 M | 54 | 36 | 1e-05 M | Aff A*24:02 (ED50) (HLA-A*24:02 [17]): 1000 nM; O-rate A*24:02 (t1/2) (HLA-A*24:02 [20]): 72 min |
